Data: patent publication US12582657B2, “Combination therapy including a KRAS G12C inhibitor and one or more additional pharmaceutically active agents for the treatment of cancers” (Amgen Inc., priority 2018, dated 2026)

Legend:
[1] = Plasma and tumor concentrations of AMG 510 (LC-MS/MS); type: in vivo, mouse; conditions: tumor-bearing mice; single oral dose 10 mg/kg
Experimental: Tumor tissue homogenates were prepared by adding water to tissue (4:1 mL:g) using tungsten carbide beads in a TissueLyzer (Qiagen). To 20 μL of sample (plasma or tumor tissue homogenate), 100 μL acetonitrile containing IS (200 ng/mL tolbutamide) was added, the sample was vortexed for 10 min, centrifuged at 3500 g for 10 min, and 90 μL of supernatant was collected. To the collected supernatant 100 μL of water (containing 0.1% formic acid) was added, and 5 μL of the resulting solution was injected onto the LC-MS/MS system. Chromatographic separations were achieved using a Phenomenex Kinetex C18 50×2.1 mm, 2.7 μm, maintained at 50° C., using 0.1% formic acid in H2O (mobile phase A) and 0.1% formic acid in acetonitrile (mobile phase B). […] Peak areas were integrated using Analyst® (Sciex).

[2] = tested on: KRASp.G12V (SW480-1AC) tumor xenografts; assay: Tumor xenograft efficacy study; type: in vivo, mouse
[3] = tested on: MAPK, EGFR, AKT, S6, caspase-3 signaling in NCI-H358 and MIA PaCa-2; assay: Western blots of cellular signaling nodes; type: cell-based, human; conditions: 0.1 μM; both lines
Description: This shifted species accumulated with increasing time and dose and was consistent with downstream inhibition of the MAPK pathway (i.e. p-MEK1/2 and p-ERK1/2) in both cell lines (FIGS. 41A and 41B).

## C=CC(=O)N1CCN(c2nc(=O)n(-c3c(C)ccnc3C(C)C)c3nc(-c4c(O)cccc4F)c(F)cc23)[C@@H](C)C1 (atropisomer, axis not shown) [AMG 510, 6-fluoro-7-(2-fluoro-6-hydroxyphenyl)-1-(4-methyl-2-(2-propanyl)-3-pyridinyl)-4-((2S)-2-methyl-4-(2-propenoyl)-1-piperazinyl)pyrido[2,3-d]pyrimidin-2(1H)-one]
[1]
  time of peak plasma and tumor exposure: 0.5 h
[2]
  tumor growth: no effect
[3]
  duration of effects on MAPK and EGFR: > 24 h
  onset of effects on MAPK and EGFR: < 2 h
  time at which p-S6 and caspase-cleavage effects emerged: 8 to 16 h
